Source: paper PMC3183312 (European journal of medicinal chemistry, 2011)

System: HIV-1NL4-3
Assay: HIV-1 infectivity assay, single cycle infection, Luc reporter in TZM-bl cells
Assay type: cell-based
Conditions: HIV-1NL4-3 in TZM-bl cells, discussion of Table 2

Row | SMILES | anti-HIV activity (in words)
1 | CCc1cc(=O)c2ccc(OCc3cc(OC)c(OC)cc3[N+](=O)[O-])c(COC(=O)[C@@]34CCC(C)(C(=O)O3)C4(C)C)c2o1 [Compound 28, 4′-((−)-Camphanoyloxymethyl)-7-(4,5-dimethoxy-2-nitrobenzyloxy)-2-ethyl-4H-chromen-4-one] | lost all activity
2 | CCc1cc(=O)c2ccc(OCc3cccc(C(F)(F)F)c3)c(COC(=O)[C@@]34CCC(C)(C(=O)O3)C4(C)C)c2o1 [Compound 20, 4′-((−)-Camphanoyloxymethyl)-2-ethyl-7-(3-(trifluoromethyl)benzyloxy)-4H-chromen-4-one] | lost all activity
3 | CCc1cc(=O)c2ccc(OCc3cc(OC)cc(OC)c3)c(COC(=O)C34CCC(C)(C(=O)O3)C4(C)C)c2o1 (stereo not drawn) [Compound 25, 4′-((−)-Camphanoyloxymethyl)-7-(3,5-dimethoxybenzyloxy)-2-ethyl-4H-chromen-4-one] | very weak anti-HIV activity
4 | CCc1cc(=O)c2ccc(OC3CCOC3=O)c(COC(=O)[C@@]34CCC(C)(C(=O)O3)C4(C)C)c2o1 (stereo partly drawn) [Compound 16, 4′-((−)-Camphanoyloxymethyl)-2-ethyl-7-(2-oxo-tetrahydrofuran-3-yloxy)-4H-chromen-4-one] | lost all activity

System: not listed separately
Assay: Chemical stability analysis in acidic conditions with HPLC monitoring
Assay type: physicochemical
Conditions: 1% HCl/MeOH/rt; peak area percentage by HPLC; preliminary

Row | SMILES | Purity (area %) Reaction Time = 1 min [%]
5 | CCc1cc(=O)c2ccc3c(c2o1)[C@@H](OC(=O)C12CCC(C)(C(=O)O1)C2(C)C)[C@@H](OC(=O)C12CCC(C)(C(=O)O1)C2(C)C)C(C)(C)O3 (stereo partly drawn) [Compound 4, 2-ethyl DCP] | 100
6 | Cc1cc(=O)oc2c3c(ccc12)OC(C)(C)[C@H](OC(=O)[C@@]12CC[C@@](C)(C(=O)O1)C2(C)C)[C@@H]3OC(=O)[C@@]12CC[C@@](C)(C(=O)O1)C2(C)C [Compound 2, 4-methyl-DCK] | 100

Second part, the compound after the results:

Row | Purity (area %) Reaction Time = 1 min [%] | SMILES
7 | 100 | CCc1cc(=O)c2ccc(OC(C)C)c(COC(=O)C34CCC(C)(C(=O)O3)C4(C)C)c2o1 (stereo not drawn) [Compound 12, 4′-((−)-Camphanoyloxymethyl)-2-ethyl-7-isopropoxy-4H-chromen-4-one]
8 | 100 | Cc1cc(=O)oc2c(COC(=O)[C@@]34CC[C@@](C)(C(=O)O3)C4(C)C)c(OC(C)C)ccc12 [Compound 7]
9 | 100 | Cc1cc(=O)oc2c(COC(=O)[C@@]34CC[C@@](C)(C(=O)O3)C4(C)C)c(SC(C)C)ccc12 [Compound 32, 4′-((−)-Camphanoyloxymethyl)-7-(isopropylthio)-4-methyl-2H-chromen-2-one]
